{"source": "patent US10889553B2", "about": "“Asymmetric triazole benzamide derivatives and the compositions and methods of treatment regarding the same” (NysnoBio Ireland DAC, priority 2017, dated 2021)", "key": {"CYP2C19": {"target": "CYP2C19 (Homo sapiens, UniProt P33261)", "sequence (P33261 whole entry)": "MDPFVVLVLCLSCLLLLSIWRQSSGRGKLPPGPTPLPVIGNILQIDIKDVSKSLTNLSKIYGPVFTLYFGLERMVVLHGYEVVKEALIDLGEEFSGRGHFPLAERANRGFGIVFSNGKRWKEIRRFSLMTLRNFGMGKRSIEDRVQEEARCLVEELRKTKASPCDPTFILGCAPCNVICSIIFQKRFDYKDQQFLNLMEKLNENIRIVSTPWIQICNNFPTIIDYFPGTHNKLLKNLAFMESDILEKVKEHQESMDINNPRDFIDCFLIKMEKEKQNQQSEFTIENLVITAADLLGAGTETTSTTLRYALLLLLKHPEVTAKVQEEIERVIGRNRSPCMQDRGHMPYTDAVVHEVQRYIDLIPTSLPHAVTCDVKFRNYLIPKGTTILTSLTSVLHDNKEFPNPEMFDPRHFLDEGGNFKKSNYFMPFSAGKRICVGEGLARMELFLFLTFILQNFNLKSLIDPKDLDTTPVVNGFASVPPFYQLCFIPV", "assay": "CYP inhibition assay", "format": "in vitro ADME", "conditions": "read-out: % Inhibition at 30 μM CYP 2C19"}, "5 major CYP enzymes": {"tested_on": "5 major CYP enzymes", "assay": "CYP inhibition assay (all 5 enzymes)", "format": "in vitro ADME", "conditions": "30 μM, in words"}, "[1]": {"assay": "Oral bioavailability (PO) and pharmacokinetics assay", "format": "in vivo, mice", "conditions": "mouse", "experimental": "The pharmacokinetics and oral bioavailability of various compounds was evaluated following IV or PO administration to fasted male Sprague-Dawley […] (N=3/route/dose). […] For IV dosing, each compound was formulated in 10% DMA/15% Solutol/75% HPβ-CD (20%) as a 1 mg/mL solution for IV (3 mg/kg), for IP (5 mg/kg) and for PO (10 mg/kg) administrations.\nBlood samples (0.250 mL) were collected into EDTA tubes then processed to generate plasma samples. Blood samples were collected at pre-dose, 0.083, 0.25, 0.5, 1, 2, 4, 8 and 24 hours post-dose administration. Plasma concentrations of each compound were determined using LC-MS/MS with a lower limit of quantitation of 1.0 ng/mL. The pharmacokinetic parameters were determined by non-compartmental methods using WinNonlin.\nThe pharmacokinetic parameters of each compound were determined by non-compartmental analysis (Model 201 for IV administration and Model 200 for PO administration) using WinNonlin Version 6.4 (Pharsight, Mountain View, Calif.). The area under the curve from the time of dosing to the last measurable concentration, AUC(0-t), was calculated by the linear trapezoidal rule. The area under the concentration-time curve extrapolated to infinity, AUC(0-∞), was calculated as follows: AUC(0-∞)=AUC(0-t)+Clast/k\nWhere Clast is the last measurable concentration and k is the first order rate constant associated with the terminal elimination phase, estimated by linear regression of log concentration versus time. The half-life (T1/2) of the terminal elimination phase was estimated based on the following equation: T1/2=0.693/k\nK was determined based on at least three timepoints with R^2≥0.9. Additional parameters were calculated as follows: CL=Dose/AUC(0-∞)\nWhere CL is the clearance of the compound of the disclosure in L/hr/kg, Dose is the administered dose in mg/kg. Mean residence time (MRT) was calculated as follows: MRT=AUMC(0-∞)/AUC(0-∞)\nWhere area under the first moment curve extrapolated to infinity (AUMC0-∞)) was calculated as follows: AUMC(0-∞)=AUMClast+tlast*[…]+Clast/k^2\nThe steady state volume of distribution (Vss) was calculated as follows: Vss=CL×MRT.\nThe oral bioavailability based on AUC(0-t) was calculated as follows: F(%)=AUCPO/AUCIV×DoseIV/DosePO×100. For IV administration, the initial concentration, Co is reported and is an extrapolated value. For PO administration, the maximum concentration, Cmax is report and is an observed value."}, "[2]": {"tested_on": "S-HeLa stably expressing a YFP-Parkin fusion protein", "assay": "Mitophagy cellular assay", "format": "cell-based", "conditions": "YFP-Parkin HeLa cells, compound with 6 μM CCCP, Tomm20 negative cells (FIG. 4)", "experimental": "The mitophagy cellular assay was performed as follows:\nS-HeLa stably expressing a YFP-Parkin fusion protein were utilised in high content screening assays to assess Parkin-dependent endpoints. 4000 cells were seeded in each well of a 96 well plate (Perkin Elmer ViewPlate-96 F TC, cat. N. 6005182) and left to grow for 24 hours. Cells were then incubated with vehicle (DMSO) or increasing concentrations of compound (1, 2.5, 5, 10 μM) for 1 hour prior to adding 6 μM carbonyl cyanide m-chlorophenyl hydrazone (CCCP), each condition run in replicate of three. After 20 hours, the cells were processed for immunofluorescence.\nSamples were fixed in 4% PFA for 25 minutes RT and permeabilized with PBS 0.1% Triton-X100 for 3 minutes on ice, blocked with PBS 3% BSA, 0.3% Triton-X100 for 2 hours RT, followed by overnight incubation with primary antibody at 4° C. […] 18 images were acquired for each well using the following combination of excitation/emission filters: Hoechst33342 was excited through a 350/50 nm band pass filter and fluorescence intensity was collected through a 460/30 band pass filter. YFP was excited through a 500/20 nm band pass filter and fluorescence intensity was collected through a 540/35 band pass filter. DyLight 649 was excited through a 640/30 nm band pass filter and fluorescence intensity was collected through 700/75 band pass filter. […]"}, "[3]": {"conditions": "male, Sprague-Dawley, plasma, IP (5 mg/kg)"}, "[4]": {"conditions": "male, Sprague-Dawley, plasma, IV bolus (3 mg/kg)"}, "[5]": {"conditions": "male, Sprague-Dawley, plasma, PO (10 mg/kg)"}}, "note": "Like-named read-outs stand apart in the source and are kept apart here.", "data": [{"molecule": "Cc1ccccc1C(=O)Nc1nc(NC(=O)c2ccccc2C)n(-c2ccc(OC(F)(F)F)cc2)n1", "note": "[Compound 42, N,N′-(1-(4-(trifluoromethoxy)phenyl)-1H-1,2,4-triazole-3,5-diyl)bis(2-methylbenzamide)]", "values": [{"measurement": "inhibition at 30 μM", "setting": "CYP2C19", "result": 60.5, "unit": "%"}, {"measurement": "CYP inhibition activity for the 5 major CYP enzymes", "setting": "5 major CYP enzymes", "result": "no significant CYP inhibition activity"}, {"measurement": "bioavailability", "setting": "[1]; male, Sprague-Dawley, plasma, intraperitoneal, 5 mg/kg, IP (5 mg/kg) vs IV, read-out: F (%)", "result": 50.3, "unit": "%"}, {"measurement": "half-life", "setting": "[1]; male, Sprague-Dawley, plasma, ip, 5 mg/kg, IP (5 mg/kg)", "result": 47, "unit": "h"}, {"measurement": "half-life", "setting": "[1]; male, Sprague-Dawley, plasma, iv, 3 mg/kg", "result": 16, "unit": "h"}, {"measurement": "half-life", "setting": "[1]; male, Sprague-Dawley, plasma, iv, 3 mg/kg, IV bolus (3 mg/kg)", "result": 16.4, "unit": "h"}, {"measurement": "Vd", "setting": "[1]; male, Sprague-Dawley, plasma, iv, 3 mg/kg, IV bolus (3 mg/kg), read-out: Vss", "result": 1.3, "unit": "L/kg"}, {"measurement": "bioavailability", "setting": "[1]; male, Sprague-Dawley, plasma, oral, 10 mg/kg, PO (10 mg/kg) vs IV, read-out: F (%) oral bioavailability", "result": 21, "unit": "%"}, {"measurement": "half-life", "setting": "[1]; male, Sprague-Dawley, plasma, po, 10 mg/kg, PO (10 mg/kg)", "result": 25, "unit": "h"}, {"measurement": "AUC(0-t)", "setting": "[1]; [3]", "result": 21500, "unit": "ng·h/mL"}, {"measurement": "Cmax", "setting": "[1]; [3]", "result": 1400, "unit": "ng/mL"}, {"measurement": "Tmax", "setting": "[1]; [3]", "result": 1.33, "unit": "h"}, {"measurement": "AUC(0-t)", "setting": "[1]; [4]", "result": 25700, "unit": "ng·h/mL"}, {"measurement": "clearance", "setting": "[1]; [4]", "result": 1.49, "unit": "mL/min/kg"}, {"measurement": "C0", "setting": "[1]; male, Sprague-Dawley, plasma, IV bolus (3 mg/kg), extrapolated value", "result": 40500, "unit": "ng/mL"}, {"measurement": "AUC(0-t)", "setting": "[1]; [5]", "result": 18400, "unit": "ng·h/mL"}, {"measurement": "Cmax", "setting": "[1]; [5]", "result": 1060, "unit": "ng/mL"}, {"measurement": "Tmax", "setting": "[1]; [5]", "result": 3.67, "unit": "h"}, {"measurement": "Vss", "setting": "[1]; IV bolus (3 mg/kg), 3 mg/kg", "result": 1.32, "unit": "L/kg"}, {"measurement": "IV clearance", "setting": "[1]; IV, in words", "result": "reasonable"}, {"measurement": "F (%) oral bioavailability", "setting": "[1]; PO (10 mg/kg) vs IV, 10 mg/kg", "result": 21.4, "unit": "%"}, {"measurement": "mitophagy / removal of damaged mitochondria", "setting": "[2]", "result": "increases removal of damaged mictochondria"}]}]}
